From the CheMixHub ionic liquid set
± gives the uncertainty stated by the source.

Assay: xn = mol fraction of the nth substance listed
Conditions: 101 kPa

CCCCCCCCCCCCCCCC[n+]1ccccc1.O=C([O-])C(O)c1ccccc1 + NCC(=O)O + O
electrical conductivity [S/m]
Conditions	293.15 K	298.15 K	303.15 K	308.15 K	313.15 K
x1 = 1.08e-06, x2 = 0	0.00061 ± 0.00098	0.00068 ± 0.0011	0.00076 ± 0.0012	0.00083 ± 0.0013	0.0009 ± 0.0015
x1 = 1.09e-06, x2 = 0.001799	0.00103 ± 0.00086	0.00118 ± 0.00098	0.0013 ± 0.0011	0.0015 ± 0.0012	0.0017 ± 0.0013
x1 = 1.26e-06, x2 = 0.0009002	0.00083 ± 0.00078	0.00094 ± 0.00092	0.00106 ± 0.00099	0.0012 ± 0.0011	0.0013 ± 0.0012
x1 = 1.98e-06, x2 = 0	0.001 ± 0.001	0.0012 ± 0.0012	0.0013 ± 0.0013	0.0014 ± 0.0014	0.0016 ± 0.0015
x1 = 2.17e-06, x2 = 0.001799	0.00151 ± 0.00085	0.00172 ± 0.00096	0.0019 ± 0.0011	0.0022 ± 0.0012	0.0024 ± 0.0013
x1 = 2.35e-06, x2 = 0.0009002	0.00125 ± 0.00084	0.00142 ± 0.00094	0.0016 ± 0.001	0.0018 ± 0.0011	0.0019 ± 0.0013
x1 = 2.88e-06, x2 = 0	0.00147 ± 0.00099	0.0016 ± 0.0011	0.0018 ± 0.0012	0.002 ± 0.0014	0.0022 ± 0.0015
x1 = 3.26e-06, x2 = 0.001799	0.00188 ± 0.00089	0.0022 ± 0.001	0.0024 ± 0.0011	0.0027 ± 0.0012	0.003 ± 0.0014
x1 = 3.43e-06, x2 = 0.0009002	0.00163 ± 0.00084	0.00185 ± 0.00094	0.0021 ± 0.001	0.0023 ± 0.0011	0.0025 ± 0.0013
x1 = 3.96e-06, x2 = 0	0.0019 ± 0.001	0.0022 ± 0.0011	0.0024 ± 0.0013	0.0026 ± 0.0014	0.0029 ± 0.0015
x1 = 4.35e-06, x2 = 0.001799	0.00233 ± 0.00087	0.00265 ± 0.00099	0.0029 ± 0.0011	0.0033 ± 0.0012	0.0036 ± 0.0013
x1 = 4.52e-06, x2 = 0.0009002	0.00209 ± 0.00084	0.00237 ± 0.00093	0.0026 ± 0.001	0.0029 ± 0.0011	0.0032 ± 0.0013
x1 = 4.69e-06, x2 = 0	0.0023 ± 0.001	0.0026 ± 0.0011	0.0029 ± 0.0013	0.0031 ± 0.0014	0.0035 ± 0.0015
x1 = 5.26e-06, x2 = 0.001799	0.00273 ± 0.00087	0.00308 ± 0.00099	0.0034 ± 0.0011	0.0038 ± 0.0012	0.0042 ± 0.0013
x1 = 5.78e-06, x2 = 0.0009002	0.00258 ± 0.00088	0.00291 ± 0.00099	0.0032 ± 0.0011	0.0036 ± 0.0012	0.004 ± 0.0013
x1 = 5.95e-06, x2 = 0	0.00281 ± 0.00098	0.0032 ± 0.0011	0.0035 ± 0.0012	0.0038 ± 0.0013	0.0042 ± 0.0015
x1 = 6.52e-06, x2 = 0.001799	0.0032 ± 0.00087	0.00363 ± 0.00097	0.004 ± 0.0011	0.0045 ± 0.0012	0.005 ± 0.0014
x1 = 7.05e-06, x2 = 0.0009002	0.00305 ± 0.00082	0.00343 ± 0.00092	0.0038 ± 0.001	0.0042 ± 0.0011	0.0046 ± 0.0013
x1 = 7.21e-06, x2 = 0	0.00341 ± 0.00095	0.0038 ± 0.0011	0.0042 ± 0.0012	0.0046 ± 0.0013	0.0051 ± 0.0015
x1 = 8.16e-06, x2 = 0.001799	0.00379 ± 0.00082	0.00429 ± 0.00093	0.0048 ± 0.001	0.0053 ± 0.0012	0.0059 ± 0.0013
x1 = 8.31e-06, x2 = 0.0009002	0.00355 ± 0.0008	0.00401 ± 0.00091	0.0045 ± 0.001	0.0049 ± 0.0011	0.0054 ± 0.0013
x1 = 8.83e-06, x2 = 0	0.00406 ± 0.00092	0.0046 ± 0.001	0.005 ± 0.0011	0.0055 ± 0.0013	0.006 ± 0.0014
x1 = 9.79e-06, x2 = 0.001799	0.00435 ± 0.00082	0.00491 ± 0.00092	0.0055 ± 0.001	0.0061 ± 0.0012	0.0068 ± 0.0013
x1 = 9.94e-06, x2 = 0.0009002	0.00404 ± 0.00079	0.00455 ± 0.00089	0.0051 ± 0.001	0.0056 ± 0.0011	0.0063 ± 0.0013
x1 = 1.045e-05, x2 = 0	0.00469 ± 0.00089	0.0053 ± 0.001	0.0058 ± 0.0011	0.0065 ± 0.0012	0.0071 ± 0.0014
x1 = 1.124e-05, x2 = 0.001799	0.00472 ± 0.00079	0.00536 ± 0.00089	0.006 ± 0.001	0.0067 ± 0.0011	0.0075 ± 0.0013
x1 = 1.138e-05, x2 = 0.0009002	0.00443 ± 0.00071	0.00502 ± 0.00081	0.00561 ± 0.00091	0.0062 ± 0.001	0.007 ± 0.0012
x1 = 1.207e-05, x2 = 0	0.00516 ± 0.00088	0.0058 ± 0.001	0.0064 ± 0.0011	0.0071 ± 0.0012	0.0079 ± 0.0014
x1 = 1.269e-05, x2 = 0.001799	0.00515 ± 0.00077	0.00581 ± 0.00088	0.0065 ± 0.00098	0.0073 ± 0.0011	0.0081 ± 0.0012
x1 = 1.283e-05, x2 = 0.0009002	0.00481 ± 0.00072	0.00543 ± 0.00081	0.00607 ± 0.00091	0.0068 ± 0.001	0.0076 ± 0.0011
x1 = 1.351e-05, x2 = 0	0.00562 ± 0.00086	0.00631 ± 0.00097	0.007 ± 0.0011	0.0077 ± 0.0012	0.0085 ± 0.0013
x1 = 1.41e-05, x2 = 0.0009002	0.00512 ± 0.00074	0.0058 ± 0.00083	0.00647 ± 0.00092	0.0072 ± 0.001	0.008 ± 0.0011
x1 = 1.414e-05, x2 = 0.001799	0.00553 ± 0.0008	0.00625 ± 0.0009	0.007 ± 0.001	0.0078 ± 0.0011	0.0087 ± 0.0012
x1 = 1.478e-05, x2 = 0	0.00603 ± 0.0009	0.0068 ± 0.001	0.0075 ± 0.0011	0.0083 ± 0.0012	0.0092 ± 0.0013
x1 = 1.54e-05, x2 = 0.001799	0.00584 ± 0.0008	0.0066 ± 0.00092	0.0074 ± 0.001	0.0083 ± 0.0012	0.0092 ± 0.0013
x1 = 1.554e-05, x2 = 0.0009002	0.0055 ± 0.00096	0.00621 ± 0.00094	0.0069 ± 0.001	0.0077 ± 0.0012	0.0086 ± 0.0014
x1 = 1.622e-05, x2 = 0	0.00644 ± 0.00092	0.0072 ± 0.001	0.008 ± 0.0011	0.0089 ± 0.0013	0.0098 ± 0.0014
x1 = 1.667e-05, x2 = 0.001799	0.00618 ± 0.00083	0.00697 ± 0.00093	0.0078 ± 0.0011	0.0087 ± 0.0012	0.0097 ± 0.0013
x1 = 1.681e-05, x2 = 0.0009002	0.0058 ± 0.001	0.00657 ± 0.00098	0.0073 ± 0.0011	0.0082 ± 0.0012	0.0091 ± 0.0015
x1 = 1.766e-05, x2 = 0	0.00687 ± 0.00093	0.0077 ± 0.001	0.0085 ± 0.0012	0.0094 ± 0.0013	0.0104 ± 0.0014
